Data reported in patent US20070275961A1, “Triazolo ' 1, 5-A ! Pyrimidines and Their Use in Medicine” (VERNALIS (CAMBRIDGE) LIMITED., priority 2003, published 2007).
Where two headings read alike, the source gives them in different places.

Key:
Assay type in all cases: biochemical
[1] = molecular target: CDK2 enzyme, complexed with cyclin A (Homo sapiens, UniProt P24941); assay: CDK2 cyclin dependent kinase assay, phosphorylation of synthetic peptide […] (33P-ATP filtration); conditions: 0.1 mM ATP
Protocol: (§1) The assay mixture containing the inhibitor and CDK2 enzyme, complexed with cyclin A (0.4 U/ml) was mixed together in a microtiter plate in a final volume of 50 μl and incubated for 40 min at 30° C. The assay mixture contained 0.1 mM unlabeled ATP, 0.01 μCi/μl ^33P-γ-ATP, 0.03 mM peptide, 0.1 mg/ml BSA, 7.5 mM magnesium acetate, 50 mM HEPES-NaOH, pH 7.5. The reaction was stopped by adding 50 μl of 50 mM phosphoric acid. 90 μl of the mixture were transferred to a pre-wetted 96-well Multiscreen MAPHNOB filtration plate (Millipore) and filtered on a vacuum manifold. The filter plate was washed with three successive additions of 200 μl 50 mM phosphoric acid and then with 100 μl methanol. The filtration plate was dried for 10 min at 65° C., scintillant added and phosphorylated peptide quantified in a scintillation counter (Trilux, PerkinElmer).
HEPES is N-[2-hydroxyethyl]piperazine-N′-[2-ethanesulfonic acid]. BSA is bovine serum albumin.

PDK1 enzyme = molecular target: T1, PDK1 enzyme (Homo sapiens, UniProt O15530); assay: PDK1 3'-phosphoinositide-dependent kinase assay, phosphorylation of synthetic peptide (33P-ATP filtration); conditions: 0.01 mM ATP, read-out: PDK1 IC50
T1 sequence (O15530 1-556): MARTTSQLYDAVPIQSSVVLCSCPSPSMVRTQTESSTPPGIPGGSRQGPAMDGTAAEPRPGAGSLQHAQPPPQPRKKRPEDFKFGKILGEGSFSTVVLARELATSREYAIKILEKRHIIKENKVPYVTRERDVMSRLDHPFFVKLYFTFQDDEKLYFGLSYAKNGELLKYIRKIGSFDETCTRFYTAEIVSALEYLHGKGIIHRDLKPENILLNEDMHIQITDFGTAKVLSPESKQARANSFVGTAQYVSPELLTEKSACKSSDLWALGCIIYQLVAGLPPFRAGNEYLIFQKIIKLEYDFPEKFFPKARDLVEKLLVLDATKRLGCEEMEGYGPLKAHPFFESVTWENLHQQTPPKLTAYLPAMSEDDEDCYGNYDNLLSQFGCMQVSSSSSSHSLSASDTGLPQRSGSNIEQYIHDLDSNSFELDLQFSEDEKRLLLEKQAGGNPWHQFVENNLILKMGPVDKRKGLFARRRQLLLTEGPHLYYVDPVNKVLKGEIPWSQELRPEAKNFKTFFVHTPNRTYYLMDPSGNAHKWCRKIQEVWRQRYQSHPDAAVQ
Protocol: as §1, with “and PDK1 enzyme” for “and CDK2 enzyme, complexed with cyclin A (0.4 U/ml)”, “for 60” for “for 40”, “contained 0.01” for “contained 0.1”, “^33P-γ-ATP, 0.075” for “^33P-γ-ATP, 0.03”, “acetate, 0.05 M Tris.HCl,” for “acetate, 50 mM HEPES-NaOH,”, “pH 7.5, 0.5% 2-mercaptoethanol.” for “pH 7.5.”

Chk1 = molecular target: T2, Chk1 (Homo sapiens, UniProt O14757); assay: Chk1 kinase assay, phosphorylation of Chktide (33P-ATP filtration); conditions: 0.01 mM ATP, read-out: Chk1 IC50
T2 sequence (O14757 1-476): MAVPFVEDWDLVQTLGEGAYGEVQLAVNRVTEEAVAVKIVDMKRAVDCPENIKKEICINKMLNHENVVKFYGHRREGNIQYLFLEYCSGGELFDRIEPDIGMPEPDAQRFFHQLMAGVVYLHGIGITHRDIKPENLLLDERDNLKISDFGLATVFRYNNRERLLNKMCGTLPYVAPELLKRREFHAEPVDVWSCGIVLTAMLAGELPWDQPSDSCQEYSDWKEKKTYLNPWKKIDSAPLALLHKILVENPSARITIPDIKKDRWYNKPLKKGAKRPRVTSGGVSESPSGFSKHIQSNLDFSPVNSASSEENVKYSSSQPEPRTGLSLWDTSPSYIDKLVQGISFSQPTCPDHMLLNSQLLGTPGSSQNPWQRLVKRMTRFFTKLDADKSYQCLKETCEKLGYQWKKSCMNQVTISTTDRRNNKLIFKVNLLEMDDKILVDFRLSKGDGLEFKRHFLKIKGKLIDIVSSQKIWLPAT
Protocol: Assays for the Chk1 kinase activity were carried out by monitoring the phosphorylation of a synthetic peptide Chktide with the amino acid sequence, […]. The assay mixture containing the inhibitor and Chk1 enzyme was mixed together in a microtiter plate in a final volume of 50 μl and incubated for 40 minutes at 30° C.
The assay mixture contained 0.01 mM unlabeled ATP, 0.5 μCi ^33P-γ-ATP, 30 μM Chktide, 0.1 mg/ml BSA, 50 mM Hepes-NaOH pH 7.5 and 11 nM GST-Chk1 enzyme. The reaction was stopped by adding 50 μl of 50 mM phosphoric acid. 90 μl of the mixture was transferred to a pre-wetted 96-well Multiscreen MAPHNOB filtration plate (Millipore) and filtered on a vacuum manifold. The filter plate was washed with three successive additions of 200 μl 50 mM phosphoric acid and then with 100 μl methanol. The filtration plate was dried for 10 min at 65° C., scintillant added and phosphorylated peptide quantified in a scintillation counter (Trilux, PerkinElmer).

In the case of `Cc1cccc(-c2cc(Nc3ccc(N4CCOCC4)cc3)nc3ncnn23)c1` [Example 106], the IC50 ([1]; Table 3) is reported as > 200 µM, the IC50 (PDK1 enzyme; Table 3) is reported as 23.2 µM and the IC50 (Chk1; Table 3) is reported as 63.3 µM.

With `NC(=O)c1ccc(Nc2cc(Cc3ccccc3)n3ncnc3n2)cc1` [Example 123] the IC50 ([1]; Table 3) was > 200 µM, the IC50 (PDK1 enzyme; Table 3) was > 200 µM and the IC50 (Chk1; Table 3) was 31.4 µM.

For `CC[C@H](CO)Nc1cc(Nc2ccc(S(C)(=O)=O)cc2)n2ncnc2n1` [Example 69], the IC50 ([1]; Table 2) was 1.82 µM, the IC50 (PDK1 enzyme; Table 2) was > 200 µM and the IC50 (Chk1; Table 2) was > 200 µM.

`Fc1cccc(-c2cc(Nc3ccc(N4CCOCC4)cc3)nc3ncnn23)c1` [Example 113] was tested, and the IC50 ([1]; Table 3) was > 200 µM, the IC50 (PDK1 enzyme; Table 3) was 46.5 µM and the IC50 (Chk1; Table 3) was 5.62 µM.

For `O=S(=O)(c1ccc(Nc2cc(Cl)nc3ncnn23)cc1)N1CCOCC1` [Example 17], the IC50 ([1]; Table 1) was 16.7 µM, the IC50 (PDK1 enzyme; Table 1) was > 200 µM and the IC50 (Chk1; Table 1) was > 200 µM.

For `NS(=O)(=O)c1ccc(Nc2cc(NCc3ccccc3)nc3ncnn23)cc1` [Example 58], the IC50 ([1]; Table 2) was 13.6 µM, the IC50 (PDK1 enzyme; Table 2) was > 200 µM and the IC50 (Chk1; Table 2) was > 200 µM.

`NS(=O)(=O)c1ccc(CNc2cc(OC3CCCCC3)nc3ncnn23)cc1` [Example 15] was tested, and the IC50 ([1]; Table 1) was 11.3 µM, the IC50 (PDK1 enzyme; Table 1) was > 200 µM and the IC50 (Chk1; Table 1) was > 200 µM.

With `NS(=O)(=O)c1ccc(Nc2cc(N3CCCC(CO)C3)nc3ncnn23)cc1` (stereo not shown) [Example 23] the IC50 ([1]; Table 1) was 0.33 µM, the IC50 (PDK1 enzyme; Table 1) was > 200 µM and the IC50 (Chk1; Table 1) was > 200 µM.

For `CCN(CC)c1cc(NCc2ccc(S(C)(=O)=O)cc2)n2ncnc2n1` [Example 103], the IC50 ([1]; Table 2) was 29.8 µM, the IC50 (PDK1 enzyme; Table 2) was > 200 µM and the IC50 (Chk1; Table 2) was > 200 µM.

With `O=S(=O)(c1ccc(Nc2cc(Cl)nc3ncnn23)cc1)N1CCC(O)CC1` [Example 7] the IC50 ([1]; Table 1) was 22.7 µM, the IC50 (PDK1 enzyme; Table 1) was > 200 µM and the IC50 (Chk1; Table 1) was > 200 µM.

For `NS(=O)(=O)c1ccc(Nc2cc(N3CCC(O)CC3)nc3ncnn23)cc1` [Example 19], the IC50 ([1]; Table 1) was 0.99 µM, the IC50 (PDK1 enzyme; Table 1) was > 200 µM and the IC50 (Chk1; Table 1) was > 200 µM.

In the case of `NC(=O)c1ccc(Nc2cc(-c3ccc4ccccc4c3)n3ncnc3n2)cc1` [Example 136], the IC50 ([1]; Table 3) is reported as > 200 µM, the IC50 (PDK1 enzyme; Table 3) is reported as 92.9 µM and the IC50 (Chk1; Table 3) is reported as 13.7 µM.

In the case of `CCN(CC)CCNC(=O)c1ccc(Nc2cc(Cc3ccccc3)n3ncnc3n2)cc1` [Example 124], the IC50 ([1]; Table 3) is reported as > 200 µM, the IC50 (PDK1 enzyme; Table 3) is reported as > 200 µM and the IC50 (Chk1; Table 3) is reported as 15.8 µM.

In the case of `Clc1cccc(-c2cc(Nc3ccc4c(c3)OCO4)n3ncnc3n2)c1` [Example 33], the IC50 ([1]; Table 1) is reported as 29 µM, the IC50 (PDK1 enzyme; Table 1) is reported as > 200 µM and the IC50 (Chk1; Table 1) is reported as 23.9 µM.

For `CN(C)CCN(C)c1cc(Nc2ccc(S(C)(=O)=O)cc2)n2ncnc2n1` [Example 73], the IC50 ([1]; Table 2) was 22.5 µM, the IC50 (PDK1 enzyme; Table 2) was > 200 µM and the IC50 (Chk1; Table 2) was > 200 µM.

`COc1ccc(C)cc1-c1cc(Nc2ccc(C(N)=O)cc2)nc2ncnn12` [Example 135] was tested, and the IC50 ([1]; Table 3) was > 200 µM, the IC50 (PDK1 enzyme; Table 3) was 10.7 µM and the IC50 (Chk1; Table 3) was 107 µM.

`NS(=O)(=O)c1ccc(CNc2cc(OCC3CCCCC3)nc3ncnn23)cc1` [Example 57] was tested, and the IC50 ([1]; Table 2) was 18.7 µM, the IC50 (PDK1 enzyme; Table 2) was > 200 µM and the IC50 (Chk1; Table 2) was > 200 µM.

With `NS(=O)(=O)c1ccc(Nc2cc(OC3CCCCC3)nc3ncnn23)cc1` [Example 2, 7-(4-Aminosulfonylphenylamino)-5-cyclohexyloxytriazolo[1,5-a]pyrimidine] the IC50 (PDK1 enzyme; Table 1) was > 200 µM and the IC50 (Chk1; Table 1) was > 200 µM.

Compound `CCCc1cc(OCCN)cc(-c2cc(Nc3ccc(C(N)=O)cc3)nc3ncnn23)c1` [Example 161] has an IC50 (PDK1 enzyme; Table 4) of 1.66 µM and an IC50 (Chk1; Table 4) of 9.04 µM.
